The values that follow come from ChEMBL document CHEMBL1149126, “3-phenyl-6-(2-pyridyl)methyloxy-1,2,4-triazolo[3,4-a]phthalazines and analogues: high-affinity gamma-aminobutyric acid-A benzodiazepine receptor ligands with alpha 2, alpha 3, and alpha 5-subtype binding selectivity over alpha 1” (J Med Chem, 2004).

SMILES strings stand for the structures.

The target in experiment [1] is T1, GABA-A receptor; alpha-3/beta-3/gamma-2 (Homo sapiens, UniProt P18507+P28472+P34903).
T1 sequence (P18507 whole entry): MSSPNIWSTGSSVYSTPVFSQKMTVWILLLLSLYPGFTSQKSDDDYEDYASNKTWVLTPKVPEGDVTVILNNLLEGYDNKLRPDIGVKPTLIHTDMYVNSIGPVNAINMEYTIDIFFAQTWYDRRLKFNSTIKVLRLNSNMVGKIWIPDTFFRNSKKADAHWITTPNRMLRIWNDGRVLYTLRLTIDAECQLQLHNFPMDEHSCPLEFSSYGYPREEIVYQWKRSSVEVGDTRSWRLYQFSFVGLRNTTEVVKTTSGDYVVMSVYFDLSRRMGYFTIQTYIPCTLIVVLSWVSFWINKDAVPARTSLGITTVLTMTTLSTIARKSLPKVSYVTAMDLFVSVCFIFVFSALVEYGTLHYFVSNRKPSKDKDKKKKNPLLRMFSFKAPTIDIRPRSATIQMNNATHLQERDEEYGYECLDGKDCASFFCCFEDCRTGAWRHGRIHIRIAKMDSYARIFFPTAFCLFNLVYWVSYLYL
T1 sequence (P28472 whole entry): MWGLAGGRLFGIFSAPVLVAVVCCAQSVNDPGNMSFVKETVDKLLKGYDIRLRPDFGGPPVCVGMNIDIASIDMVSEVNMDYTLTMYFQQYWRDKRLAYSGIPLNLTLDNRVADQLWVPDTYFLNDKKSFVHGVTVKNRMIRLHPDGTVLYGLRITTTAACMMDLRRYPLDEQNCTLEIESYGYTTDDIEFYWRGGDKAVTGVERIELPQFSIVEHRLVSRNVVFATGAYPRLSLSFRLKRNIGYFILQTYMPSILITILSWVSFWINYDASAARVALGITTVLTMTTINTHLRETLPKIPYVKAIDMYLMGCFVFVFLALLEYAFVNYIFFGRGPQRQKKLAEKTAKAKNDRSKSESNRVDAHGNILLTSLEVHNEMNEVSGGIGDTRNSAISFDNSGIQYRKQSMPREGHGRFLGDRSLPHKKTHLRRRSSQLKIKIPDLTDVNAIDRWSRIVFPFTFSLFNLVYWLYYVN
T1 sequence (P34903 whole entry): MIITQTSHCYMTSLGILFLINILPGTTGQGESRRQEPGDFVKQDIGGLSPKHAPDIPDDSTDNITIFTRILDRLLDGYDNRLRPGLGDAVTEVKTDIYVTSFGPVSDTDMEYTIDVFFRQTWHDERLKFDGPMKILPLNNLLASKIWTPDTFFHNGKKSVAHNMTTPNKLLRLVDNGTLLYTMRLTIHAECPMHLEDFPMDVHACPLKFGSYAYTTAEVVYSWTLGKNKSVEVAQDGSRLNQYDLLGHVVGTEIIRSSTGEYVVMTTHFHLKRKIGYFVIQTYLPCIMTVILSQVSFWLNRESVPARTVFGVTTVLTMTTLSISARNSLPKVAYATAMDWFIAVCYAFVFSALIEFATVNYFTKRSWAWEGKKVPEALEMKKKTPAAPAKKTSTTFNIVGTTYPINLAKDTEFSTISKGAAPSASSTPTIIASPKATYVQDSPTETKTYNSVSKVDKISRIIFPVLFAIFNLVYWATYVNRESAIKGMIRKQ
Description: Binding affinity for human GABA-A receptor alpha-3-beta-3-gamma-2 subunits in L(tk-) cells. The format is cell-based.

The target in experiment [2] is T2, GABA-A receptor; alpha-2/beta-3/gamma-2 (Homo sapiens, UniProt P18507+P28472+P47869).
T2 sequence (P18507 whole entry): T1 sequence (P18507 whole entry)
T2 sequence (P28472 whole entry): T1 sequence (P28472 whole entry)
T2 sequence (P47869 whole entry): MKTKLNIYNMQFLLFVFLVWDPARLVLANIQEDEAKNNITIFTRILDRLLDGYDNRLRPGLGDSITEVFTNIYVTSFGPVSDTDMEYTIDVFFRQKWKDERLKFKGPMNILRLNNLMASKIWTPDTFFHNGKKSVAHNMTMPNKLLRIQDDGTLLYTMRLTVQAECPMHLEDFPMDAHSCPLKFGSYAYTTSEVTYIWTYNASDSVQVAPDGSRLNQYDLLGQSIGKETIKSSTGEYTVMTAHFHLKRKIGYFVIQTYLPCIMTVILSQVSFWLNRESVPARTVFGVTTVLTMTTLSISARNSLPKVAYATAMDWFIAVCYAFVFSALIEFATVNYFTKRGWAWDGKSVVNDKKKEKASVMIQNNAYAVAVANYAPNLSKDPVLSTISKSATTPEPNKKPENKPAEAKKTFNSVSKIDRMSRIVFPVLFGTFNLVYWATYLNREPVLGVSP
Nature of the experiment: Binding affinity for human GABA-A receptor alpha-2-beta-3-gamma-2 subunits in L(tk-) cells. The experiment is classed as cell-based.

Experiment [3] deals with T3, GABA-A receptor; alpha-5/beta-3/gamma-2 (Homo sapiens, UniProt P18507+P28472+P31644).
T3 sequence (P18507 whole entry): T1 sequence (P18507 whole entry)
T3 sequence (P28472 whole entry): T1 sequence (P28472 whole entry)
T3 sequence (P31644 whole entry): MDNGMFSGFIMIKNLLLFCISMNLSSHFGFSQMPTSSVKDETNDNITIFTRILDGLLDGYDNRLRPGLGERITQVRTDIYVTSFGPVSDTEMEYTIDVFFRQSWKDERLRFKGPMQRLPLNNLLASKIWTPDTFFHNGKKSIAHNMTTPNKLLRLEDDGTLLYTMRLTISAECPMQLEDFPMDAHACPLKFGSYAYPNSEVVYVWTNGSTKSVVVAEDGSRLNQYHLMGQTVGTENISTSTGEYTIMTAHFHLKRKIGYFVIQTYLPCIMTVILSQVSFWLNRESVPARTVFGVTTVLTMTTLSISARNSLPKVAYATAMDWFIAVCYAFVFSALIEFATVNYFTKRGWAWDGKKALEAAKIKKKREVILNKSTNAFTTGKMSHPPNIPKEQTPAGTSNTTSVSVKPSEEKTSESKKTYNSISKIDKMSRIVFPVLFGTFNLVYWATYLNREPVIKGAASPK
Nature of the experiment: Binding affinity for human GABA-A receptor alpha-5-beta-3-gamma-2 subunits in L(tk-) cells. The experiment is classed as cell-based.

Experiment [4] has as its target T4, GABA-A receptor; alpha-1/beta-3/gamma-2 (Homo sapiens, UniProt P14867+P18507+P28472).
T4 sequence (P14867 whole entry): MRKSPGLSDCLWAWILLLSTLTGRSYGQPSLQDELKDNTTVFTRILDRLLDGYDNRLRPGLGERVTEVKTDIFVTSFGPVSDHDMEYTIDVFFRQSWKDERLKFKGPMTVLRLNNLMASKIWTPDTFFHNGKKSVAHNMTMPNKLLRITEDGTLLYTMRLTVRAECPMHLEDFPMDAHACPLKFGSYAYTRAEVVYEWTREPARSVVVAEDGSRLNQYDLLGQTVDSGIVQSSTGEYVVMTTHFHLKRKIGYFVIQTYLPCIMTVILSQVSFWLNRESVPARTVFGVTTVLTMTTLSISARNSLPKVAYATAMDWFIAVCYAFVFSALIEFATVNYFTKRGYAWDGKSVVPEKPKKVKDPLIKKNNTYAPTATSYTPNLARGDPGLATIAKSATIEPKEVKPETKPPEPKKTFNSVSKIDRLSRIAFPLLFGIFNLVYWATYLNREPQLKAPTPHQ
T4 sequence (P18507 whole entry): T1 sequence (P18507 whole entry)
T4 sequence (P28472 whole entry): T1 sequence (P28472 whole entry)
Nature of the experiment: Binding affinity for human GABA-A receptor alpha-1-beta-3-gamma-2 subunits in L(tk-) cells.

A word on the Ki: it is the equilibrium dissociation constant of an inhibitor or competing ligand from its target. High values mean a looser hold on the target, low ones a stronger hold on the target. Take `O=C1c2ccccc2C(=O)N1CCn1c(=O)c2ccccc2c(=O)n1Cc1ccccc1`: the values for the Ki in experiment [1], in experiment [2] and in experiment [3] were 1400 nM, 1800 nM and 4800 nM, respectively.
On to `c1ccc(-c2nnc3c4ccccc4c(OCC4CCNCC4)nn23)cc1`, for which the Ki in experiment [1] was 37 nM; in experiment [2] it was 40 nM; in experiment [4] it was 32 nM; in experiment [3], 30 nM.
As for `Clc1ccc(COc2nn3c(-c4ccccc4)nnc3c3ccccc23)cc1`, the Ki in experiment [1] was found to be 250 nM; in experiment [2], 380 nM; in experiment [4], 480 nM; in experiment [3] it was 170 nM.
As to `COCCN(CCOC)c1nn2c(-c3ccc(OC)cc3)nnc2c2ccccc12`, the values for the Ki in experiment [1], in experiment [2] and in experiment [3] were 41 nM, 41 nM and 80 nM, respectively.
As to `c1ccc(-c2nnc3c4ccccc4c(OCc4cccs4)nn23)cc1`, the Ki turned out to be 300 nM in experiment [1], 560 nM in experiment [2], 240 nM in experiment [4] and 170 nM in experiment [3].
For `c1ccc(CNc2nn3c(-c4ccccc4)nnc3c3ccccc23)cc1` the same measures were more than 1000 nM, more than 1000 nM, more than 1000 nM and more than 1000 nM.
`Clc1ccccc1COc1nn2c(-c3ccccc3)nnc2c2ccccc12`: the Ki in experiment [1] is 260 nM; in experiment [2] it was 580 nM; in experiment [4], more than 1000 nM; in experiment [3] it was 560 nM.
The corresponding values for `COc1ccc(COc2nn3c(-c4ccccc4)nnc3c3ccccc23)cc1` are 190 nM, 220 nM, 200 nM and 160 nM.
For `c1ccc(CCOc2nn3c(-c4ccccc4)nnc3c3ccccc23)cc1` the same measures were 720 nM, more than 1000 nM, 380 nM and more than 1000 nM.
For `c1ccc(Cc2nnc3c4ccccc4c(OCc4ccccn4)nn23)cc1` the same measures were 190 nM, 340 nM, 260 nM and 18 nM.
Take `c1ccc(-c2nnc3c4ccccc4c(OCc4ccco4)nn23)cc1`: the Ki in experiment [1] stood at 180 nM; in experiment [2], 270 nM; in experiment [4], 250 nM; in experiment [3], 74 nM.
For `c1ccc(COc2nn3c(C4CCC4)nnc3c3ccccc23)nc1` the same measures were 23 nM, 24 nM, 56 nM and 5.1 nM.
Take `c1ccc(-c2nnc3c4ccccc4c(OCc4ccsc4)nn23)cc1`: the Ki in experiment [1] came out at 240 nM; in experiment [2], 510 nM; in experiment [4], 710 nM; in experiment [3], 250 nM.
The corresponding values for `Cc1cccnc1COc1nn2c(-c3ccccc3)nnc2c2ccccc12` are 1 nM, 2.3 nM, 2.4 nM and 0.88 nM.
As to `c1ccc(-c2nnc3c4ccccc4c(OCc4ccncn4)nn23)cc1`, the Ki in experiment [1] is 1.3 nM; in experiment [2] it was 2.9 nM; in experiment [4], 2.3 nM; in experiment [3], 0.5 nM.
The corresponding values for `COc1nn2c(-c3ccccc3)nnc2c2ccccc12` are 120 nM, 160 nM, 140 nM and 39 nM.
Consider `COc1ccc(-c2nnc3c4ccccc4c(OCc4ccccc4)nn23)cc1`, for which the Ki turned out to be 170 nM in experiment [1], 850 nM in experiment [2] and 72 nM in experiment [3].
For `N#Cc1cccc(COc2nn3c(-c4ccccc4)nnc3c3ccccc23)c1`, the Ki in experiment [1] worked out at 170 nM; in experiment [2], 400 nM; in experiment [4] it was 730 nM; in experiment [3], 130 nM.
For `c1ccc(CCCOc2nn3c(-c4ccccc4)nnc3c3ccccc23)cc1` the same measures were 420 nM, more than 1000 nM, 300 nM and more than 1000 nM.
For `c1ccc(-c2nnc3c4ccccc4c(OCCc4ccccn4)nn23)cc1` the same measures were 17 nM, 25 nM, 18 nM and 15 nM.
The corresponding values for `Cc1ccnc(COc2nn3c(-c4ccccc4)nnc3c3ccccc23)c1` are 10 nM, 11 nM, 18 nM and 3.7 nM.
Regarding `c1ccc(-c2nnc3c4ccccc4c(OCc4ccncc4)nn23)cc1`, the Ki in experiment [1] worked out at 7.7 nM; in experiment [2], 11 nM; in experiment [4] it was 24 nM; in experiment [3], 6.1 nM.
Take `c1ccc(COc2nn3c(-c4ccccc4)nnc3c3ccccc23)cc1`: the Ki in experiment [1] is 41 nM; in experiment [2] it was 16 nM; in experiment [4], 280 nM; in experiment [3], 38 nM.
The compound `Cc1ccc(-c2nc3ccc(C)cn3c2CC(=O)N(C)C)cc1` [ZOLPIDEM] showed a Ki in experiment [3] of more than 15000 nM.
Consider `CCc1nnc2c3ccccc3c(OCc3ccccn3)nn12`, for which the Ki in experiment [1] turned out to be 53 nM; in experiment [2], 130 nM; in experiment [4], 250 nM; in experiment [3], 16 nM.
For `Cc1ccc(-c2nnc3c4ccccc4c(OCc4ccccn4)nn23)cc1`, the Ki in experiment [1] is 11 nM; in experiment [2] it was 16 nM; in experiment [3], 4 nM.
As to `c1ccc(-c2nnc3c4ccccc4c(OCc4cccnn4)nn23)cc1`, the Ki worked out at 0.37 nM in experiment [1], 0.82 nM in experiment [4] and 0.15 nM in experiment [3].
